The text below walks through data of patent publication US9174996B2, “Protein kinase inhibitors” (Astar Biotech LLC, priority 2012, dated 2015).

For one data set, the system named is JURKAT. In words: MTT cell viability assay, Experiment 3. It counts as cell-based. The conditions noted are these: Homo sapiens, MTT, Mean ± S.E.M, two independent experiments, read-out: IC50 cell viability, Non-CML leukemia cells JURKAT. The text has this:
(§1) This study evaluated the effect of the pure optical isomers on human leukemia cell viability in vitro. Ponatinib was used as the positive control. Two BCR-ABL-positive human leukemia cell lines, K562 and KU812, were used in this study. Besides, Ba/F3 cell transfectants expressing native or T315I BCR-ABL, whose viability is dependent on ectopically expressed BCR-ABL, were also used in this work. Ba/F3 cells expressing BCR-ABL^T315I were used for testing the efficiency of tested compounds on point mutation BCR-ABL^T315I, which cause drug resistance to Imatinib (Gleevec). U937 and JURKAT, two BCR-ABL-negative human leukemia cell lines, were employed to test the selectivity of tested compounds.
(§2) Cells were seeded in 24-well plates, and treated with drugs at corresponding concentrations. Cell viability was measured using a MTT (3-(4,5-dimethylthiazol-2-yl)-2,5-diphenyltetrazolium bromide)-based colorimetric assay with a 96-well plate reader. IC50 values were calculated using the mean of two independent experiments.
For orientation: Tetrazolium assays rely on reduction of a dye to a coloured formazan, in cell work by metabolically active cells.

In the next data set the test system is U937. In words: MTT cell viability assay, Experiment 3. It is filed as cell-based. The conditions noted are these: Homo sapiens, U-937; MTT, Mean ± S.E.M, two independent experiments; read-out: IC50 cell viability, Non-CML leukemia cells U937.
From the text: as §1, §2

In the next data set the test system is KU812. In words: MTT cell viability assay, Experiment 3. The note with it: Homo sapiens, KU812; MTT, Mean ± S.E.M, two independent experiments; read-out: IC50 cell viability, CML leukemia cells KU812. It is filed as cell-based.
From the text: as §1, §2

Another data set relates to K562. Briefly: MTT cell viability assay, Experiment 3. The note with it: Homo sapiens, K562; MTT, Mean ± S.E.M, two independent experiments; read-out: IC50 cell viability, CML leukemia cells K562. It is filed as cell-based.
From the text: as §1, §2

Data set [1] concerns the target Ba/F3 cells expressing BCR-ABL T315I (Homo sapiens, UniProt P00519, T315I, cells depend on it). Briefly: MTT cell viability assay, Experiment 3. It is filed as cell-based, murine. The conditions noted are these: Mean ± S.E.M, two independent experiments, read-out: IC50 cell viability, Ba/F3 cells T315I BCR-ABL.
From the text: as §1, with “Ponatinib was used as the positive control.” left out
as §2

Data set [2] addresses Ba/F3 cells expressing native BCR-ABL (Homo sapiens, UniProt P00519). In words: MTT cell viability assay, Experiment 3. It counts as cell-based, murine. The conditions noted are these: Mean ± S.E.M, two independent experiments, read-out: IC50 cell viability, Ba/F3 cells Native BCR-ABL.
From the text: as §1, with “Ponatinib was used as the positive control.” left out
as §2

Data set [3] has as its system K562 cells. Briefly: Cell death assay, Experiment 2 (IC50, live cells counted by trypan blue). It counts as cell-based. The conditions noted are these: Homo sapiens, 48 h. As to the method:
K562 cells (2×10^5 cells/ml) were seeded in 24-well cell culture plate and treated with DMSO or agents. After treatment in the presence of DMSO or agents for 48 h, cells were collected by centrifuging at 500 g for 5 minutes, and then cells were resuspended in appropriate volume of PBS. 10 uL of cell suspension was mixed with 10 uL of trypan blue solution and live cells were counted by TC10 (Bio-Rad, Richmond, Calif.).

For data set [4], the system named is K562 cells. Briefly: Cell death assay, Experiment 1 (live cells counted by trypan blue). It counts as cell-based. The note with it: Homo sapiens, 100 nM, 48 hours, read-out: % live cells (vs control).

As a reminder, the melting point is the temperature of the solid-liquid transition. For orientation: IC50 means the concentration that inhibits the measured activity by half. As to `CN1CCN(C2CC(F)(F)c3cc(NC(=O)c4ccc(Cl)c(C#Cc5cnc6cccnn56)c4)ccc32)CC1` (racemic) [Compound 38, N-(1,1-difluoro-2,3-dihydro-3-(4-methylpiperazin-1-yl)-1H-indan-6-yl)-3-(2-(imidazo[1,2-b]pyridazin-3-yl)ethynyl)-4-chlorobenzamide], the melting point lay within 140 to 142 °C. Also, the IC50 in the data set with JURKAT is above 1000 nM. Besides, in the data set on U937, the IC50 was above 1000 nM. In addition, the IC50 in the data set with KU812 came out at 0.4 ± 0.1 nM. In the data set with K562, the IC50 came to 0.8 ± 0.1 nM. The GI50 in data set [1] turned out to be 10.1 ± 0.7 nM. Moreover, in data set [2], the GI50 is 4.9 ± 2.1 nM.

In the case of `CN1CCN([C@H]2CC(F)(F)c3cc(NC(=O)c4ccc(F)c(C#Cc5cnc6cccnn56)c4)ccc32)CC1` (single isomer, unassigned) [39-(S)], the IC50 is above 1000 nM in the data set with JURKAT, above 1000 nM with U937, 0.2 ± 0.1 nM in the data set with KU812 and 0.3 ± 0.2 nM with K562. Moreover, the GI50 is 6.5 ± 1.2 nM in data set [1] and 2.3 ± 0.5 nM in [2].

In turn, `Cc1cn(-c2cc(NC(=O)c3ccc(C)c(C#Cc4ccc(NC5CC5)nn4)c3)cc(C(F)(F)F)c2)cn1` [Compound 23, 3-(2-(6-(Cyclopropylamino)pyridazin-3-yl)ethynyl)-4-methyl-N-(3-(4-methyl-1H-imidazol-1-yl)-5-(trifluoromethyl)phenyl)benzamide] showed a melting point of 226 to 228 °C. Half-maximal inhibition in the data set with K562 cells [3] (IC50) required 16 nM. Further, in the data set on K562 cells [4], the viability at 0.1 µM came out at 8.6%.

`Cc1ccc(C(=O)Nc2ccc(CN3CCN(C)CC3)c(C(F)(F)F)c2)cc1C#Cc1ccc(NC2CCC2)nn1` [Compound 13, 3-(2-(6-(Cyclobutylamino)pyridazin-3-yl)ethynyl)-4-methyl-N-(4-((4-methylpiperazin-1-yl)methyl)-3-(trifluoromethyl)phenyl)benzamide] returned a melting point of 120 to 121 °C. Moreover, inhibition in the data set with K562 cells [3] was half-maximal at 11 nM (IC50). Besides, in the data set on K562 cells [4], the viability at 0.1 µM is 8.9%.

`Cc1ccc(C(=O)Nc2ccc(CN3CCN(C)CC3)c(C(F)(F)F)c2)cc1C#Cc1ccc(NC2CC2)nn1` [Compound 12, 3-(2-(6-(Cyclopropylamino)pyridazin-3-yl)ethynyl)-4-methyl-N-(4-((4-methylpiperazin-1-yl)methyl)-3-(trifluoromethyl)phenyl)benzamide] registered a melting point of 68 to 69 °C. Further, 4 nM corresponded to half-maximal inhibition in the data set on K562 cells [3] (IC50). In the data set with K562 cells [4], the viability at 0.1 µM came out at 10.1%.

The molecule `CN1CCN(C2CC(F)(F)c3cc(NC(=O)c4ccc(F)c(C#Cc5cnc6cccnn56)c4)ccc32)CC1` (racemic) [Compound 39, N-(1,1-difluoro-2,3-dihydro-3-(4-methylpiperazin-1-yl)-1H-indan-6-yl)-3-(2-(imidazo[1,2-b]pyridazin-3-yl)ethynyl)-4-fluorobenzamide] gave a melting point of 118 to 121 °C. For the same molecule, the IC50 with JURKAT is above 1000 nM. Further, the IC50 in the data set with U937 was 810 ± 39.2 nM. Also, the IC50 with KU812 was 0.5 ± 0.3 nM. Further, the half-inhibitory concentration (IC50) in the data set with K562 amounted to 0.8 ± 0.2 nM. In addition, the GI50 in data set [1] was 13 ± 0.9 nM. Further, the GI50 in data set [2] was determined as 3.6 ± 0.7 nM.

As to `Cc1ccc(C(=O)Nc2ccc3c(c2)C(F)(F)C[C@H]3N2CCN(C)CC2)cc1C#Cc1cnc2cccnn12` [36-(R), (R)—N-(1,1-difluoro-2,3-dihydro-3-(4-methylpiperazin-1-yl)-1H-indan-6-yl)-3-(2-(imidazo[1,2-b]pyridazin-3-yl)ethynyl)-4-methylbenzamide], the IC50 was above 1000 nM with JURKAT, above 1000 nM in the data set on U937, 2.7 ± 0.1 nM in the data set with KU812 and 3.6 ± 0.1 nM in the data set on K562. In addition, the GI50 was above 100 nM in data set [1] and 31.2 ± 3.8 nM in [2].

On to `Cc1ccc(-c2nc3ccc(CN4CCN(C)CC4)cc3[nH]2)cc1C#Cc1cnc2cccnn12` [Compound 3, 3-(2-(2-Methyl-5-(6-((4-methylpiperazin-1-yl)methyl)-1H-benzo[d]imidazol-2-yl)phenyl)ethynyl)imidazo[1,2-b]pyridazine], for which the melting point lay in the range of 114 to 115 °C. The same molecule displayed a concentration for half-maximal inhibition (IC50) with K562 cells [3] of 3 nM. In addition, in the data set with K562 cells [4], the viability at 0.1 µM came out at 11.3%.

Consider `CN1CCN([C@@H]2CC(F)(F)c3cc(NC(=O)c4ccc(Cl)c(C#Cc5cnc6cccnn56)c4)ccc32)CC1` (single isomer, unassigned) [38-(R)], for which the IC50 was above 1000 nM with JURKAT, above 1000 nM in the data set on U937, 11.9 ± 0.3 nM in the data set with KU812 and 24.9 ± 9.9 nM in the data set with K562. Further, the GI50 is above 100 nM in data set [1] and 78.2 ± 2.3 nM in data set [2].

The molecule `CN1CCN(Cc2ccc3nc(-c4ccc(Cl)c(C#Cc5cnc(NC6CC6)nc5)c4)[nH]c3c2)CC1` [Compound 10, 5-(2-(2-Chloro-5-(6-((4-methylpiperazin-1-yl)methyl)-1H-benzo[d]imidazol-2-yl)phenyl)ethynyl)-N-cyclopropylpyrimidin-2-amine] registered a melting point of 160 to 162 °C. In addition, in the data set with K562 cells [4], the viability at 0.1 µM was found to be 11%.

Turning to `Cc1cn(-c2cc(NC(=O)c3ccc(Cl)c(C#Cc4ccc(NC5CC5)nn4)c3)cc(C(F)(F)F)c2)cn1` [Compound 26, 4-Chloro-3-(2-(6-(cyclopropylamino)pyridazin-3-yl)ethynyl)-N-(3-(4-methyl-1H-imidazol-1-yl)-5-(trifluoromethyl)phenyl)benzamide], the melting point is 213 to 215 °C. The viability at 0.1 µM in the data set with K562 cells [4] stood at 18.3%.

With `CN1CCN(Cc2ccc(NC(=O)N3CCC(C#Cc4cnc5cccnn45)C3)cc2C(F)(F)F)CC1` (centres unmarked) [Compound 35, 3-(2-(Imidazo[1,2-b]pyridazin-3-yl)ethynyl)pyrrolidine-N-(4-((4-methylpiperazin-1-yl)methyl)-3-(trifluoromethyl)phenyl)-1-carboxamide], the melting point lay within 83 to 85 °C. The viability at 0.1 µM in the data set with K562 cells [4] amounted to 11.3%.

`Cc1ccc(C(=O)Nc2ccc3c(c2)C(F)(F)C[C@@H]3N2CCN(C)CC2)cc1C#Cc1cnc(NC2CC2)nc1` [37-(S), (S)-3-(2-(2-(Cyclopropylamino)pyrimidin-5-yl)ethynyl)-N-(1,1-difluoro-2,3-dihydro-3-(4-methylpiperazin-1-yl)-1H-indan-6-yl)-4-methylbenzamide]: the IC50 with JURKAT is 280 ± 20 nM; in the data set on U937, 165 ± 15 nM; in the data set on KU812 it was 0.2 ± 0.1 nM; in the data set with K562, 0.6 ± 0.1 nM. Besides, the GI50 in [1] is 12.4 ± 0.4 nM; in data set [2], 3.5 ± 0.9 nM.

For `CN1CCN([C@@H]2CC(F)(F)c3cc(NC(=O)c4ccc(F)c(C#Cc5cnc6cccnn56)c4)ccc32)CC1` (single isomer, unassigned) [39-(R)], the half-inhibitory concentration (IC50) in the data set with JURKAT was above 1000 nM; with U937, above 1000 nM; in the data set on KU812, 3.6 ± 0.8 nM; in the data set with K562, 6.4 ± 1.3 nM. Moreover, the GI50 in data set [1] is above 100 nM; in [2], 47.6 ± 4.5 nM.

Take `Cc1ccc(C(=O)Nc2ccc3c(c2)C(F)(F)C[C@H]3N2CCN(C)CC2)cc1C#Cc1cnc(NC2CC2)nc1` [37-(R), (R)-3-(2-(2-(Cyclopropylamino)pyrimidin-5-yl)ethynyl)-N-(1,1-difluoro-2,3-dihydro-3-(4-methylpiperazin-1-yl)-1H-indan-6-yl)-4-methylbenzamide]: the IC50 with JURKAT stood at 400 ± 64.9 nM; in the data set on U937 it was 465 ± 9.7 nM; with KU812, 5.2 ± 0.2 nM; in the data set with K562, 10.4 ± 1.5 nM. In addition, the values for the GI50 in [1] and in data set [2] were above 100 nM and 62.5 ± 6.9 nM, respectively.
